Measured values: patent publication US20210355116A1, “METHODS OF PRODUCING NARONAPRIDE TRIHYDRATE” (Renexxion, LLC, priority 2018, published 2021)
Where a name gives a salt, the structure may show the parent alone. Read-outs that look alike come from different tables or passages of the source.

How the values were obtained:
[1] = Stability of the trihydrate form stored in bulk in a GMP storage facility; assay type: physicochemical; conditions: room temperature, RH >30%, up to 11 years
Description: The trihydrate form was evaluated for stability with regard to purity and strength over a time period of up to 11 years, by storing it in a GMP facility under controlled conditions of temperature and relative humidity (temperature=room temperature and relative humidity >30%).

[2] = Bulk stability in very high humidity, one week; assay type: physicochemical
Description: Bulk Stability in Very High Humidity: The trihydrate form of the dihydrochloride salt was stressed at 25° C. and 97% relative humidity (open), 40° C. and 96% relative humidity (open), and 60° C. and 96% relativity humidity (open) for one week.

[3] = Bulk stability under stressed conditions, one or two weeks; assay type: physicochemical; conditions: all temperatures and humidities tested, one week or two weeks
Description: Bulk Stability Under Stressed Conditions: About 20-30 mg of the trihydrate form of the dihydrochloride salt was weighed into HPLC vials and stressed at 25° C. and 60% relative humidity (open), 40° C. and 75% relative humidity (open), and 60° C. (closed) for one week and for two weeks.

[4] = for Resulting Form: slurry, antisolvent Water, ambient, 3 weeks
Description: Noncompetitive Slurry Experiments for Polymorph Screening: Noncompetitive slurry experiments were performed as a supplemental polymorph screening method. When suspensions of a polymorphic material are prepared, any polymorphic form with a lower solubility (more thermodynamically stable form) can nucleate. The nucleated forms can convert all the residual solids to the nucleated form via solvent-mediated phase transition. Suspensions of the isolated Form I were prepared by adding excess solid to several different solvent systems. The suspensions were stirred vigorously at ambient temperature for 3 weeks. The remaining solids were collected by vacuum filtration and analyzed by powder X-ray diffraction to determine if any changes in the crystalline form of the solids occurred.

[5] = 12-month stability of the anhydrous form at controlled temperature and humidity (HPLC, water content); assay type: physicochemical; conditions: 25° C./60% RH
Description: The dihydrochloride salt, anhydrous form of (3S, 4R, 3′R)-6-[4-(4-amino-5-chloro-2-methoxy-benzoylamino)-3-methoxy-piperidin-1-yl]-hexanoic acid 1-azabicyclo[2.2.2]oct-3′-yl ester, was placed in stability chambers with temperature and humidity controlled, for up to 12 months. The temperature was set at 25° C., and the relative humidity was set at 60%. The samples were assayed at time zero, then at 3, 6, 9, and 12 months using an HPLC method. The HPLC conditions were as follows:
Column: Inertsil C8-3, 250 mm length, 3 mm diameter, 5 um particle size
Mobile Phase A: 2000 mL water+3 mL formic acid
Mobile Phase B: 1000 mL methanol+3 mL formic acid
Detection wavelength: 275 nm

[6] = Dehydration profile by thermographic analysis (TGA); assay type: physicochemical; conditions: 25° C. to 250° C.
Description: Thermographic analysis (TGA) curves were generated for the anhydrate and trihydrate using a Perkin Elmer TGA-7. Three to five milligram samples were weighed into aluminum sample pans and run under dry nitrogen at 5° C./minute from 25° C. to 250° C. The data were exported to Excel to enable plotting.
The two differ in the appearance of the dehydration mass loss observed for the trihydrate and absent as expected from the anhydrate. Dehydration of the trihydrate started immediately upon start of heating and was complete by approximately 50° C. Complete dehydration below 100° C. is consistent with the assignment of the trihydrate as a channel type hydrate.

For COc1cc(N)c(Cl)cc1C(=O)N[C@@H]1CCN(CCCCCC(=O)O[C@H]2CN3CCC2CC3)C[C@@H]1OC [Compound 1, (3S, 4R, 3′R)-6-[4-(4-amino-5-chloro-2-methoxy-benzoylamino)-3-methoxy-piperidin-1-yl]-hexanoic acid 1-azabicyclo[2.2.2] oct-3′-yl ester di-hydrochloride salt], the “Stability under GMP storage” value [1] was “stable”, the “Physical and chemical stability” value ([2]; 25° C. and 97% relative humidity (open)) was “both physically and chemically stable” and the “Physical and chemical stability” value ([2]; temperature elevated to 40° C. or 60° C., 96% relative humidity (open)) was “underwent liquescence”. For the same compound, the “Physical and chemical stability” value [3] was “both physically and chemically stable”.

For COc1cc(N)c(Cl)cc1C(=O)N[C@@H]1CCN(CCCCCC(=O)O[C@H]2CN3CCC2CC3)C[C@@H]1OC [Form I, (3S, 4R, 3′R)-6-[4-(4-amino-5-chloro-2-methoxy-benzoylamino)-3-methoxy-piperidin-1-yl]-hexanoic acid 1-azabicyclo[2.2.2]oct-3′-yl ester], the “Thermodynamic stability among anhydrous forms” value ([4]; based on the outcome of the slurry experiments) was “most thermodynamically stable anhydrous form”, the “Resulting Form” value ([4]; solvent 1-Propanol) was “Form 1” and the “Resulting Form” value ([4]; solvent Acetonitrile) was “Form 1”. For the same compound, the “Resulting Form” value ([4]; solvent Ethanol) was “Form 1”, the “Resulting Form” value ([4]; solvent Methanol) was “Form 1” and the “Resulting Form” value ([4]; solvent Water) was “Form 1”.

With “(3S, 4R, 3′R)-6-[4-(4-amino-5-chloro-2-methoxy-benzoylamino)-3-methoxy-piperidin-1-yl]-hexanoic acid 1-azabicyclo[2.2.2]oct-3′-yl ester” the “Purity HPLC (Area %)” value ([5]; 0 months) was 99.3 Area %, the “Water Content” value ([5]; 0 months) was 0.45% and the “Purity HPLC (Area %)” value ([5]; 3 months) was 99.2 Area %. The “Water Content” value ([5]; 3 months) was 6.47%, the “Purity HPLC (Area %)” value ([5]; 6 months) was 99.3 Area % and the “Water Content” value ([5]; 6 months) was 8.47%. The “Purity HPLC (Area %)” value ([5]; 9 months) was 99.2 Area %, the “Water Content” value ([5]; 9 months) was 8.20% and the “Purity HPLC (Area %)” value ([5]; 12 months) was 99.3 Area %. The “Water Content” value ([5]; 12 months) was 8.43%, the “Decrease in strength of the active ingredient” value ([5]; due to increase in water content over 6 to 12 months) was “approximately 8%” and the “Dehydration mass loss (TGA)” value [6] was “absent”.
